≈ marks a conversion by molar mass, not a printed value. Blank lines part the entries; values can stand above or below the compound they belong to.
Experiments:
Experiment in all cases: ≥ marks a high value that may be exact or a test limit, other limits are often not marked, values filed in µg/mL are converted to µM
Staphylococcus aureus = tested on: Staphylococcus aureus
Escherichia coli B = tested on: Escherichia coli B
Staphylococcus aureus 1 = tested on: Staphylococcus aureus 1
[1] = tested on: Candida albicans F7-39/IDE99
[2] = tested on: Staphylococcus epidermidis
Pseudomonas aeruginosa = tested on: Pseudomonas aeruginosa
[3] = tested on: Staphylococcus aureus ATCC 43300
[4] = tested on: Pseudomonas aeruginosa ATCC 27853
Bacillus subtilis 168 = tested on: Bacillus subtilis 168
[5] = tested on: Micrococcus luteus CCM 144
[6] = tested on: Fusarium graminearum PH-1
[7] = tested on: Escherichia coli ESBL 63103
[8] = tested on: Pseudomonas aeruginosa LES400
[9] = tested on: Enterococcus faecium mic80
Candida albicans C627 = tested on: Candida albicans C627
[10] = tested on: Pseudomonas aeruginosa 213
[11] = tested on: Pseudomonas aeruginosa H103
[12] = tested on: Staphylococcus aureus C623
[13] = tested on: Staphylococcus aureus ATCC 25923
[14] = tested on: Escherichia coli ATCC 25322
[15] = tested on: Staphylococcus epidermidis ATCC 12228
[16] = tested on: Klebsiella pneumoniae ATCC 700603
[17] = tested on: Acinetobacter baumannii ATCC 19606
[18] = tested on: Salmonella enterica subsp. enterica serovar Typhimurium ATCC 14028
[19] = tested on: Escherichia coli BW25113 ΔsbmA
[20] = tested on: Escherichia coli ATCC 25922
Escherichia coli BW25113 = tested on: Escherichia coli BW25113
Escherichia coli = tested on: Escherichia coli
[21] = tested on: Escherichia coli DH5alpha
Acinetobacter baumannii = tested on: Acinetobacter baumannii
[22] = tested on: Corynebacterium glutamicum ATCC 13032
Micrococcus luteus = tested on: Micrococcus luteus
Bacillus subtilis = tested on: Bacillus subtilis
[23] = tested on: Stenotrophomonas maltophilia
Streptococcus pyogenes = tested on: Streptococcus pyogenes
Proteus vulgaris = tested on: Proteus vulgaris
Salmonella typhimurium = tested on: Salmonella typhimurium

SMILES: CC[C@H](C)[C@H](NC(=O)CN)C(=O)N[C@@H](CC(C)C)C(=O)N[C@@H](CO)C(=O)N[C@@H](CO)C(=O)N[C@@H](CC(C)C)C(=O)N[C@@H](Cc1c[nH]c2ccccc12)C(=O)N[C@@H](CCCCN)C(=O)N[C@@H](CCCCN)C(=O)N[C@@H](CC(C)C)C(=O)N[C@@H](CCCCN)C(=O)N[C@@H](CCCCN)C(=O)N[C@@H](Cc1c[nH]c2ccccc12)C(=O)N[C@H](C(=O)N[C@@H](C)C(=O)N[C@@H](CCCCN)C(N)=O)[C@@H](C)CC [GILSSLWKKLKKWIAK]
MIC (Staphylococcus aureus): 2 µM (≈ 3.8 µg/mL)
MIC (Escherichia coli B): 2.5 µM (≈ 4.75 µg/mL)
MIC (Staphylococcus aureus 1): 1.8 µM (≈ 3.42 µg/mL)
MIC [1]: 13 µM (≈ 24.7 µg/mL)
MIC [2]: 1.6 µM (≈ 3.04 µg/mL)
MIC (Pseudomonas aeruginosa): 24 µM (≈ 45.6 µg/mL)
MIC [3]: 2.5 µM (≈ 4.75 µg/mL)
MIC [4]: 13 µM (≈ 24.7 µg/mL)
MIC (Bacillus subtilis 168): 7 µM (≈ 13.3 µg/mL)
MIC [5]: 3 µM (≈ 5.7 µg/mL)

SMILES: CC[C@H](C)[C@H](NC(=O)[C@H](CCCCN)NC(=O)[C@H](CCCCN)NC(=O)[C@H](CC(C)C)NC(=O)[C@H](CCCCN)NC(=O)[C@H](CCCCN)NC(=O)[C@H](Cc1c[nH]c2ccccc12)NC(=O)[C@H](CC(C)C)NC(=O)[C@H](CO)NC(=O)[C@H](CO)NC(=O)[C@H](CC(C)C)NC(=O)[C@H](CCCCN)NC(=O)CN)C(=O)N[C@H](C(=O)N[C@@H](C)C(=O)N[C@@H](CCCCN)C(N)=O)[C@@H](C)CC [GKLSSLWKKLKKIIAK]
MIC (Staphylococcus aureus): 27 µM (≈ 49.7 µg/mL)
MIC (Escherichia coli B): 20 µM (≈ 36.8 µg/mL)
MIC (Staphylococcus aureus 1): 11 µM (≈ 20.2 µg/mL)
MIC [1]: ≥ 34 µM
MIC [2]: 2.5 µM (≈ 4.6 µg/mL)
MIC (Pseudomonas aeruginosa): 19 µM (≈ 35 µg/mL)
MIC [3]: 26 µM (≈ 47.8 µg/mL)
MIC [4]: 6.8 µM (≈ 12.5 µg/mL)
MIC (Bacillus subtilis 168): 7 µM (≈ 12.9 µg/mL)
MIC [5]: 3 µM (≈ 5.52 µg/mL)

SMILES: NCC(=O)N1CCC[C@H]1C(=O)N[C@H]1CSSC[C@@H](C(=O)O)NC(=O)CNC(=O)[C@H](CO)NC(=O)[C@H](Cc2ccccc2)NC1=O [GPCFSGC]
MIC [6]: ≥ 48 µM

SMILES: CC[C@H](C)[C@H](N)C(=O)N[C@@H](CCCCN)C(=O)N[C@@H](Cc1c[nH]c2ccccc12)C(=O)N[C@@H](CCCCN)C(=O)N[C@@H](CCCN=C(N)N)C(=O)N[C@@H](Cc1c[nH]c2ccccc12)C(=O)N[C@@H](Cc1c[nH]c2ccccc12)C(=O)N[C@@H](Cc1c[nH]c2ccccc12)C(=O)N[C@@H](CCCN=C(N)N)C(=O)O [IKWKRWWWR]
MIC [7]: 22.1 µM (≈ 32 µg/mL)
MIC [8]: ≥ 88.6 µM
MIC [9]: 22.1 µM (≈ 32 µg/mL)
MIC (Candida albicans C627): 5.54 µM (≈ 8 µg/mL)
MIC [10]: ≥ 88.6 µM
MIC [11]: ≥ 88.6 µM
MIC [12]: 22.1 µM (≈ 32 µg/mL)
MIC [13]: 22.1 µM (≈ 32 µg/mL)

SMILES: CC(C)C[C@H](NC(=O)[C@H](C)NC(=O)[C@H](CO)NC(=O)[C@H](CCCCN)NC(=O)[C@H](CC(C)C)NC(=O)[C@H](CC(C)C)NC(=O)[C@@H](N)CC(N)=O)C(=O)N[C@@H](CCCCN)C(=O)N[C@H](C(=O)N[C@H](C(=O)N[C@@H](CC(N)=O)C(=O)N[C@@H](CCCCN)C(=O)N[C@@H](CC(C)C)C(=O)N[C@@H](CC(C)C)C(=O)N[C@@H](C)C(=O)N[C@@H](C)C(=O)N[C@@H](CO)C(N)=O)C(C)C)[C@@H](C)O [NLLKSALKTVNKLLAAS]
MIC [14]: ≥ 32 µM
MIC [15]: 64 µM (≈ 114 µg/mL)
MIC [4]: 64 µM (≈ 114 µg/mL)
MIC [16]: 64 µM (≈ 114 µg/mL)
MIC [13]: 128 µM (≈ 228 µg/mL)

SMILES: CC(C)C[C@H](NC(=O)CNC(=O)[C@H](CC(N)=O)NC(=O)[C@@H](NC(=O)[C@@H](NC(=O)CNC(=O)[C@H](CC(C)C)NC(=O)[C@H](C)NC(=O)[C@H](CC(=O)O)NC(=O)[C@H](CC(N)=O)NC(=O)[C@H](CC(C)C)NC(=O)[C@H](CC(C)C)NC(=O)[C@@H](N)CC(N)=O)[C@@H](C)O)C(C)C)C(=O)N[C@@H](CC(C)C)C(=O)NCC(=O)N[C@@H](CCCN=C(N)N)C(=O)N[C@@H](CO)C(=O)O [NLLNDALGTVNGLLGRS]
MIC [14]: ≥ 64 µM
MIC [13]: 32 µM (≈ 55.3 µg/mL)

SMILES: C[C@H](NC(=O)[C@H](Cc1ccccc1)NC(=O)CNC(=O)[C@@H](N)CCCN=C(N)N)C(=O)N[C@@H](CCCN=C(N)N)C(=O)N[C@@H](CCCN=C(N)N)C(=O)O [RGFARR]
MIC [6]: ≥ 96 µM

More lines, now with the values ahead:

MIC [17]: 16 µM (≈ 42.6 µg/mL)
MIC [18]: 8 µM (≈ 21.3 µg/mL)
MIC [19]: 16 µM (≈ 42.6 µg/mL)
MIC [20]: 4 µM (≈ 10.6 µg/mL)
MIC (Escherichia coli BW25113): 2 µM (≈ 5.32 µg/mL)
MIC [4]: > 64 µM
MIC [16]: 32 µM (≈ 85.1 µg/mL)
MIC [13]: > 64 µM
SMILES: CC[C@H](C)[C@H](NC(=O)[C@@H]1CCCN1C(=O)[C@@H]1CCCN1C(=O)[C@H](CCCN=C(N)N)NC(=O)[C@H](Cc1ccccc1)NC(=O)[C@@H](N)CCCN=C(N)N)C(=O)N[C@@H](CCCN=C(N)N)C(=O)N[C@@H](CCCN=C(N)N)C(=O)N1CCC[C@H]1C(=O)N1CCC[C@H]1C(=O)N[C@H](C(=O)N[C@@H](CCCN=C(N)N)C(=O)N1CCC[C@H]1C(=O)N1CCC[C@H]1C(=O)N[C@@H](Cc1ccccc1)C(=O)N[C@@H](Cc1ccc(O)cc1)C(=O)N1CCC[C@H]1C(=O)N1CCC[C@H]1C(=O)N[C@@H](Cc1ccccc1)C(=O)N[C@@H](CCCN=C(N)N)C(=O)N1CCC[C@H]1C(=O)O)[C@@H](C)CC [RFRPPIRRPPIRPPFYPPFRP]

MIC (Escherichia coli): 8.93 µM (≈ 16.4 µg/mL)
MIC (Staphylococcus aureus): 4.47 µM (≈ 8.18 µg/mL)
MIC [21]: 25 µM (≈ 45.8 µg/mL)
MIC (Acinetobacter baumannii): 17.9 µM (≈ 32.7 µg/mL)
MIC [22]: 0.794 µM (≈ 1.45 µg/mL)
MIC (Micrococcus luteus): 8.93 µM (≈ 16.4 µg/mL)
MIC (Pseudomonas aeruginosa): 69.8 µM (≈ 128 µg/mL)
MIC (Bacillus subtilis): 8.93 µM (≈ 16.4 µg/mL)
MIC [23]: ≥ 279 µM
SMILES: CC(=O)N[C@@H](CCCN=C(N)N)C(=O)N[C@@H](Cc1c[nH]c2ccccc12)C(=O)N[C@H](C(=O)N[C@@H](Cc1c[nH]c2ccccc12)C(=O)N[C@@H](CCCN=C(N)N)C(=O)NCC(=O)N[C@@H](CO)C(=O)NCC(=O)N[C@@H](CCCN=C(N)N)C(=O)N[C@@H](Cc1c[nH]c2ccccc12)C(=O)N[C@H](C(=O)N[C@@H](Cc1c[nH]c2ccccc12)C(=O)N[C@@H](CCCN=C(N)N)C(N)=O)[C@@H](C)O)[C@@H](C)O [RWTWRGSGRWTWR]

MIC (Escherichia coli): 64 µM (≈ 94.1 µg/mL)
MIC (Streptococcus pyogenes): ≥ 64 µM
MIC (Proteus vulgaris): ≥ 64 µM
MIC [2]: ≥ 64 µM
MIC (Salmonella typhimurium): 0.5 µM (≈ 0.735 µg/mL)
MIC (Pseudomonas aeruginosa): 64 µM (≈ 94.1 µg/mL)
MIC (Bacillus subtilis): ≥ 64 µM
SMILES: CC[C@H](C)[C@H](NC(=O)[C@@H](N)Cc1ccc(O)cc1)C(=O)N1CCC[C@H]1C(=O)N[C@@H](CCC(N)=O)C(=O)N1CCC[C@H]1C(=O)N[C@@H](CCCN=C(N)N)C(=O)N1CCC[C@H]1C(=O)N1CCC[C@H]1C(=O)N[C@@H](Cc1cnc[nH]1)C(=O)N1CCC[C@H]1C(=O)N[C@@H](CCCN=C(N)N)C(=O)N[C@@H](CC(C)C)C(=O)O [YIPQPRPPHPRL]

Reference: DBAASP
